Key:
[1] = system: L. donovani promastigotes; assay: Antileishmanial Alamar Blue assay on promastigotes; format: cell-based, Leishmania donovani; conditions: for X more potent than Pentamidine: L. donovani, ratio of molar IC50 to Pentamidine; for L. donovani IC50 / IC50: promastigotes, 48 hours, Alamar Blue; for IC50: read-out: L. donavani IC50
Outline: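 Alamar Blue fluorescence (544/590 nm) quantified growth after 48 hours at 26° C of compound-treated promastigotes. Parasites were seeded at 5×10^5/mL in RPMI 1640 plus 10% FCS; drug range 50-3.1 μg/mL, and IC50 derived by plotting percent growth against test concentration.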

[2] = system: methicillin-resistant S. aureus ATCC 33591 (MRS); assay: Antibacterial broth dilution assay against MRSA (modified CLSI); format: cell-based, Staphylococcus aureus; conditions: for MRSa IC50 / IC50: in vitro; for IC50: converted with molecular weight; for X more potent than ciprofloxacen: molar IC50 ratio versus ciprofloxacen
Procedure: (§1) General Experimental Procedures. All organisms were obtained from the American Type Culture Collection (Manassas, VA) and include the fungi Candida albicans ATCC 90028, C. glabrata ATCC 90030, C. krusei ATCC 6258, and Cryptococcus neoformans ATCC 90113, and the bacteria Staphylococcus aureus ATCC 29213 and methicillin-resistant S. aureus ATCC 33591 (MRS). All organisms were tested using modified versions of the CLSI (formerly NCCLS) methods. For all organisms, optical density was used to monitor growth (NCCLS, Reference Method for Broth Dilution Antifungal Susceptibility Testing of Yeasts; Approved Standard M27-A2. National Committee on Clinical Laboratory Standards, 2002 22 (15); and NCCLS, Methods for Dilution Antimicrobial Susceptibility Tests for Bacteria that Grow Aerobically; Approved Standard, Seventh Edition M7-A7. National Committee on Clinical Laboratory Standards, 2006. 26(2)).
(§2) Samples (dissolved in DMSO) were serially-diluted in 20% DMSO/saline and transferred (10 μL) in duplicate to 96 well flat bottom microplates. Inocula were prepared by correcting the OD630 of microbe suspensions in incubation broth [RPMI 1640/0.2% dextrose/0.03% glutamine/MOPS @ pH 6.0 (Cellgro) for Candida spp., Sabouraud Dextrose for C. neoformans, and cation-adjusted Mueller-Hinton (Difco) @ pH 7.3 for Staphylococcus spp. to afford an assay volume of […] and final target inocula of: Candida spp. and C. neoformans: 1.5×10^3, and Staphylococcus spp.: 5.0×10^5 CFU/ml. Final sample test concentrations were 1/100th the DMSO stock concentration. […] All organisms were read at either 530 nm using the Biotek Powerwave XS plate reader (Bio-Tek Instruments, Vermont) prior to and after incubation: Candida spp. at 35° C. for 46-50 h, Staphylococcus spp. at 35° C. for 16-20 h, and C. neoformans at 35° C. for 70-74 h. IC50s (concentrations that afford 50% inhibition relative to controls) were calculated using XLfit 4.2 software (IDBS, Alameda, CA) using fit model 201. The MIC is defined as the lowest test concentration that allows no detectable growth. Minimum fungicidal or bactericidal concentrations were determined by removing 5 μl from each clear (or blue) well, transferring to fresh media, and incubating as previously mentioned. The MFC/MBC is defined as the lowest test concentration that kills the organism (allows no growth).
(§3) Primary Analysis. Samples were tested in duplicate at one test concentration (50 μg/mL), and percent inhibitions were calculated relative to blank and growth controls. Samples showing 50% inhibition in at least one test organism were selected for dose response (Secondary) studies.
(§4) Secondary Analysis. Extracts from the Primary Assay, and first-run pure compounds and column fractions were tested in duplicate at 3 test concentrations (5-fold dilutions). Samples dissolved to 20 mg/mL in DMSO were tested at 200, 40, and 8 μg/mL. Samples dissolved to 2 mg/mL in DMSO were tested at 20, 4, and 0.8 μg/mL.

[3] = system: Staphylococcus aureus ATCC 29213; assay: Antibacterial broth dilution assay against S. aureus (modified CLSI); format: cell-based; conditions: for S. aureus IC50 / IC50: in vitro; for IC50: converted with molecular weight; for X more potent than ciprofloxacen: molar IC50 ratio versus ciprofloxacen
Procedure: as §1, §2, §3, §4

[4] = system: Cryptococcus neoformans ATCC 90113; assay: Antimicrobial microdilution assay against Cryptococcus neoformans (modified CLSI/NCCLS, optical density); format: cell-based; conditions: for X more potent than Amphotericin B: C. neoformans, ratio of molar IC50 to Amphotericin B; for C. neoformans IC50 / IC50: in vitro, C. neoformans ATCC 90113; for IC50: read-out: C. neoformans IC50 (mol/L)
Outline: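 Fungicidal endpoint taken by subculturing 5 μL from each clear well onto agar, MFC being the lowest concentration with no regrowth. Duplicate wells of serially diluted compound (20% DMSO/saline) in RPMI pH 6.0, read at 630 nm pre- and post-incubation, under modified CLSI methods. IC50 means 50% growth inhibition against controls.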

C. glabrata ATCC 90030 = assay: Antifungal broth dilution assay against C. glabrata (modified CLSI); format: cell-based, Candida glabrata; conditions: for C. glabrata IC50 / IC50: in vitro; for IC50: converted with molecular weight; for X more potent than Amphotericin B: molar IC50 ratio versus amphotericin B
Outline: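 Growth read by optical density at 530 nm, duplicate wells, 1% final DMSO. Staphylococcus spp.: Mueller-Hinton pH 7.3, 5.0×10^5 CFU/ml, 35 °C for 16-20 h; Candida spp.: RPMI/dextrose/glutamine/MOPS pH 6.0, 1.5×10^3 CFU/ml, 35 °C for 46-50 h. Reported values are 50% inhibition versus controls, no-growth MIC, and killing MFC/MBC.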

| Compound | X more potent than Pentamidine [1] | L. donovani IC50 [1] [µg/mL] | IC50 [1] [µM] | MRSa IC50 [2] [µg/mL] | IC50 [2] [µM] | X more potent than ciprofloxacen [2] | S. aureus IC50 [3] [µg/mL] | IC50 [3] [µM] | X more potent than ciprofloxacen [3] | X more potent than Amphotericin B [4] | C. neoformans IC50 [4] [µg/mL] | IC50 [4] [µM] | C. glabrata IC50 (C. glabrata ATCC 90030) [µg/mL] | IC50 (C. glabrata ATCC 90030) [µM] | X more potent than Amphotericin B (C. glabrata ATCC 90030) |
| --- | --- | --- | --- | --- | --- | --- | --- | --- | --- | --- | --- | --- | --- | --- | --- |
| [Ni2(m-cyclam-homocyclen)(OAc)2][PF6]2•H2O [AW050] | 0.36 | 16.50 | 14.8 | 4.650 | 4.18 | 0.05 | 8.540 | 7.68 | 0.04 | 0.25 | 1.040 | 0.935 |  |  |  |
| CC(=O)[O-].F[P-](F)(F)(F)(F)F.[Co+2].c1ccc(CN2CCCN3CCCN(CCCN(Cc4ccccc4)CC3)CC2)cc1 [DJD21, [Co(Bn2PBCyclam)(OAc)]PF6] | 0.26 | 14.12 | 20.7 | 3.710 | 5.43 | 0.04 | 3.590 | 5.25 | 0.05 | 0.05 | 3.510 | 5.13 |  |  |  |
| c1ccc(CN2CCCN3CCCN(CCCN(Cc4ccccc4)CC3)CC2)cc1 [SLK09, Bn2PBCyclam] | 0.87 | 2.56 | 6.09 | 4.960 | 11.8 | 0.02 | 2.270 | 5.4 | 0.05 | 0.11 | 0.910 | 2.16 |  |  |  |
| CC(=O)[O-].F[P-](F)(F)(F)(F)F.[Zn+2].c1ccc(CN2CCCN3CCCN(CCCN(Cc4ccccc4)CC3)CC2)cc1 [DJD23, [Zn(Bn2PBCyclam)(OAc)]PF6] | 0.85 | 4.32 |  | 3.210 |  | 0.05 | 6.530 |  | 0.03 | 0.08 | 1.990 |  |  |  |  |
| c1cc(CN2CCN3CCNCCN(CC3)CC2)ccc1CN1CCN2CCNCCN(CC2)CC1 [JGL19, p-CB-H2Bcyclens] | 0.31 | 8.54 | 17.1 | 1.060 | 2.12 | 0.10 | 2.900 | 5.81 | 0.05 | 0.20 | 0.590 | 1.18 |  |  |  |
| [Fe(Bn2PBCyclen)(C2H3O2)]PF6•1.2NH4PF6 [AW037] | 0.17 | 26.63 | 31.4 | 9.480 | 11.2 | 0.02 | 4.940 | 5.83 | 0.05 | 0.02 | 8.400 | 9.9 |  |  |  |
| [Co2(p-CB-cyclam-cyclen)(OAc)2][PF6]2 [CMB027] | 0.18 | 32.62 | 30.2 | 5.390 | 4.99 | 0.04 | 7.36 | 6.81 | 0.04 | 0.32 | ≤ 0.800 | 0.74 | 1.320 | 1.22 | 1.16 |
| [Ni2(m-CB-Homocyclens)(OAc)1.9][PF6]2.1 [CDG038] | 0.29 | 19.92 | 18.3 | 9.080 | 8.34 | 0.03 | 9.58 | 8.8 | 0.03 | 0.09 | 3.010 | 2.76 |  |  |  |
| [Zn2(p-CB-cyclam-cyclen)(OAc)][PF6]3•4H2O [CMB030] | 0.21 | 31.32 | 25 | 8.760 | 7 | 0.03 | 7.86 | 6.28 | 0.04 | 0.22 | 1.380 | 1.1 | 4.190 | 3.35 | 0.42 |
